Each molecule was assayed against Bcl-2 protein (Homo sapiens (Human), UniProt P10415) (assay: Bcl-2 binding TR-FRET (Time-Resolved Fluorescence-Resonance-Energy-Transfer) assay). Settings: inhibition constant for binding to Bcl-2 protein.
Source text: The smaller the Ki value, the greater is the binding affinity.

Chain of Bcl-2 protein (P10415 whole entry): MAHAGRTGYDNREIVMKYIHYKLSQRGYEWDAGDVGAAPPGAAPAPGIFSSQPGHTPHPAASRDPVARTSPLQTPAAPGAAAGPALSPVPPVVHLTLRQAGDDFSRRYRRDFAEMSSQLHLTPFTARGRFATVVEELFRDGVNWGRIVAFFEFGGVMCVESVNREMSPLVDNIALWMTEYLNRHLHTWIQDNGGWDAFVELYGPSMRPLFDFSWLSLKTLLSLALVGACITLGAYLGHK

Q: `CC1(C)CCC(CN2CCN(c3ccc(C(=O)NS(=O)(=O)c4ccc(NC5CCC(N(CCC#N)C6CC6)CC5)c([N+](=O)[O-])c4)c(Oc4cnc5[nH]ccc5c4)c3)CC2)=C(c2ccc(Cl)cc2)C1` (stereo not drawn) [Compound 340, 4-(4-{[2-(4-chlorophenyl)-4,4-dimethylcyclohex-1-en-1-yl]methyl}piperazin-1-yl)-N-{[4-({4-[(2-cyanoethyl)(cyclopropyl)amino]cyclohexyl}amino)-3-nitrophenyl]sulfonyl}-2-(1H-pyrrolo[2,3-b]pyridin-5-yloxy)benzamide] was tested. Which Ki did it give?
A: Its Ki is less than 0.01 nM.

Q: For `C[C@]1(O)CC[C@@H](COc2ncc(S(=O)(=O)NC(=O)c3ccc(N4CCN(CC5=C(c6ccc(Cl)cc6)CC6(CC5)CC6)CC4)cc3Oc3cnc4[nH]ccc4c3)cc2Cl)CC1` [Compound 341, N-({5-chloro-6-[(trans-4-hydroxy-4-methylcyclohexyl)methoxy]pyridin-3-yl}sulfonyl)-4-(4-{[5-(4-chlorophenyl)spiro[2.5]oct-5-en-6-yl]methyl}piperazin-1-yl)-2-(1H-pyrrolo[2,3-b]pyridin-5-yloxy)benzamide], which Ki is on record?
A: Its Ki is less than 0.01 nM.

Q: For `CC1(C)CCC(CN2CCN(c3ccc(C(=O)NS(=O)(=O)c4cnc(OCC5CCc6nccn6C5)c(Cl)c4)c(Oc4cnc5[nH]ccc5c4)c3)CC2)=C(c2ccc(Cl)cc2)C1` (stereo not drawn) [Compound 342, 4-(4-{[2-(4-chlorophenyl)-4,4-dimethylcyclohex-1-en-1-yl]methyl}piperazin-1-yl)-N-{[5-chloro-6-(5,6,7,8-tetrahydroimidazo[1,2-a]pyridin-6-ylmethoxy)pyridin-3-yl]sulfonyl}-2-(1H-pyrrolo[2,3-b]pyridin-5-yloxy)benzamide], which Ki is on record?
A: The Ki was less than 0.01 nM.

Q: For `O=C(NS(=O)(=O)c1cnc(OCC2(F)CCN(C3COC3)CC2)c(Cl)c1)c1ccc(N2CCN(CC3=C(c4ccc(Cl)cc4)CC4(CC3)CC4)CC2)cc1Oc1cnc2[nH]ccc2c1` [Compound 345, N-[(5-chloro-6-{[4-fluoro-1-(oxetan-3-yl)piperidin-4-yl]methoxy}pyridin-3-yl)sulfonyl]-4-(4-{[5-(4-chlorophenyl)spiro[2.5]oct-5-en-6-yl]methyl}piperazin-1-yl)-2-(1H-pyrrolo[2,3-b]pyridin-5-yloxy)benzamide], which Ki is on record?
A: The Ki was less than 0.01 nM.

Q: With `CC1(C)CCC(CN2CCN(c3ccc(C(=O)NS(=O)(=O)c4cnc(OC[C@]5(F)CC[C@@H](O)CC5)c(Cl)c4)c(Oc4cnc5[nH]ccc5c4)c3)CC2)=C(c2ccc(Cl)cc2)C1` [Compound 350, N-({5-chloro-6-[(cis-1-fluoro-4-hydroxycyclohexyl)methoxy]pyridin-3-yl}sulfonyl)-4-(4-{[2-(4-chlorophenyl)-4,4-dimethylcyclohex-1-en-1-yl]methyl}piperazin-1-yl)-2-(1H-pyrrolo[2,3-b]pyridin-5-yloxy)benzamide] as the molecule, how does the Ki read?
A: The Ki was less than 0.01 nM.

Q: With `CC1(C)CCC(CN2CCN(c3ccc(C(=O)NS(=O)(=O)c4ccc(OCC5CCC6(CC5)COC6)c([N+](=O)[O-])c4)c(Oc4cnc5[nH]ccc5c4)c3)CC2)=C(c2ccc(Cl)cc2)C1` [Compound 351, 4-(4-{[2-(4-chlorophenyl)-4,4-dimethylcyclohex-1-en-1-yl]methyl}piperazin-1-yl)-N-{[3-nitro-4-(2-oxaspiro[3.5]non-7-ylmethoxy)phenyl]sulfonyl}-2-(1H-pyrrolo[2,3-b]pyridin-5-yloxy)benzamide] as the molecule, how does the Ki read?
A: Its Ki is less than 0.01 nM.

Q: With `O=C(NS(=O)(=O)c1ccc(NCC2CCOCC2)c([N+](=O)[O-])c1)c1ccc(N2CCN(CC3=C(c4ccc(Cl)cc4)CCC(CF)(CF)C3)CC2)cc1Oc1cnc2[nH]ccc2c1` [Compound 353, 4-(4-{[2-(4-chlorophenyl)-5,5-bis(fluoromethyl)cyclohex-1-en-1-yl]methyl}piperazin-1-yl)-N-({3-nitro-4-[(tetrahydro-2H-pyran-4-ylmethyl)amino]phenyl}sulfonyl)-2-(1H-pyrrolo[2,3-b]pyridin-5-yloxy)benzamide] as the molecule, how does the Ki read?
A: Its Ki is less than 0.01 nM.

Q: How did the Ki turn out when `CC1(C)CCC(CN2CCN(c3ccc(C(=O)NS(=O)(=O)c4ccc(OCC5(F)CCN(C6COC6)CC5)c(C#N)c4)c(Oc4cnc5[nH]ccc5c4)c3)CC2)=C(c2ccc(Cl)cc2)C1` [Compound 357, 4-(4-{[2-(4-chlorophenyl)-4,4-dimethylcyclohex-1-en-1-yl]methyl}piperazin-1-yl)-N-[(3-cyano-4-{[4-fluoro-1-(oxetan-3-yl)piperidin-4-yl]methoxy}phenyl)sulfonyl]-2-(1H-pyrrolo[2,3-b]pyridin-5-yloxy)benzamide] was run?
A: The Ki was less than 0.01 nM.

Q: Which Ki does the source give for `CC[C@]1(O)CC[C@@H](CNc2ccc(S(=O)(=O)NC(=O)c3ccc(N4CCN(CC5=C(c6ccc(Cl)cc6)CC(C)(C)CC5)CC4)cc3Oc3cnc4[nH]ccc4c3)cc2[N+](=O)[O-])CC1` [Compound 358, 4-(4-{[2-(4-chlorophenyl)-4,4-dimethylcyclohex-1-en-1-yl]methyl}piperazin-1-yl)-N-[(4-{[(trans-4-ethyl-4-hydroxycyclohexyl)methyl]amino}-3-nitrophenyl)sulfonyl]-2-(1H-pyrrolo[2,3-b]pyridin-5-yloxy)benzamide] here?
A: Its Ki is less than 0.01 nM.

Q: How did the Ki turn out when `CC[C@]1(O)CC[C@H](CNc2ccc(S(=O)(=O)NC(=O)c3ccc(N4CCN(CC5=C(c6ccc(Cl)cc6)CC(C)(C)CC5)CC4)cc3Oc3cnc4[nH]ccc4c3)cc2[N+](=O)[O-])CC1` [Compound 359, 4-(4-{[2-(4-chlorophenyl)-4,4-dimethylcyclohex-1-en-1-yl]methyl}piperazin-1-yl)-N-[(4-{[(cis-4-ethyl-4-hydroxycyclohexyl)methyl]amino}-3-nitrophenyl)sulfonyl]-2-(1H-pyrrolo[2,3-b]pyridin-5-yloxy)benzamide] was run?
A: Its Ki is less than 0.01 nM.

Q: With `COCC1(C)CCC(c2ccc(Cl)cc2)=C(CN2CCN(c3ccc(C(=O)NS(=O)(=O)c4ccc(NCC5CCOCC5)c([N+](=O)[O-])c4)c(Oc4cnc5[nH]ccc5c4)c3)CC2)C1` (stereo not drawn) [Compound 360, 4-(4-{[2-(4-chlorophenyl)-5-(methoxymethyl)-5-methylcyclohex-1-en-1-yl]methyl}piperazin-1-yl)-N-({3-nitro-4-[(tetrahydro-2H-pyran-4-ylmethyl)amino]phenyl}sulfonyl)-2-(1H-pyrrolo[2,3-b]pyridin-5-yloxy)benzamide] as the molecule, how does the Ki read?
A: The Ki was less than 0.01 nM.

Q: `CC1(C)CCC(CN2CCN(c3ccc(C(=O)NS(=O)(=O)c4ccc(NC[C@H]5CN(C6COC6)CCO5)c([N+](=O)[O-])c4)c(Oc4cnc5[nH]ccc5c4)c3)CC2)=C(c2ccc(Cl)cc2)C1` [Compound 361, 4-(4-{[2-(4-chlorophenyl)-4,4-dimethylcyclohex-1-en-1-yl]methyl}piperazin-1-yl)-N-{[3-nitro-4-({[(2S)-4-(oxetan-3-yl)morpholin-2-yl]methyl}amino)phenyl]sulfonyl}-2-(1H-pyrrolo[2,3-b]pyridin-5-yloxy)benzamide] was tested. Which Ki did it give?
A: Its Ki is less than 0.01 nM.

Q: With `CC1(C)CCC(CN2CCN(c3ccc(C(=O)NS(=O)(=O)c4ccc(OC[C@H]5CC[C@@](C)(O)CC5)c(Cl)c4)c(Oc4cnc5[nH]ccc5c4)c3)CC2)=C(c2ccc(Cl)cc2)C1` [Compound 362, N-({3-chloro-4-[(trans-4-hydroxy-4-methylcyclohexyl)methoxy]phenyl}sulfonyl)-4-(4-{[2-(4-chlorophenyl)-4,4-dimethylcyclohex-1-en-1-yl]methyl}piperazin-1-yl)-2-(1H-pyrrolo[2,3-b]pyridin-5-yloxy)benzamide] as the molecule, how does the Ki read?
A: Its Ki is 0.016 nM.

Q: How did the Ki turn out when `CC1(C)CCC(CN2CCN(c3ccc(C(=O)NS(=O)(=O)c4cnc(NCC5CCOCC5)c([N+](=O)[O-])c4)c(Oc4cnc5[nH]ccc5c4)c3)CC2)=C(c2ccc(Cl)cc2)C1` [Compound 364, 4-(4-{[2-(4-chlorophenyl)-4,4-dimethylcyclohex-1-en-1-yl]methyl}piperazin-1-yl)-N-({5-nitro-6-[(tetrahydro-2H-pyran-4-ylmethyl)amino]pyridin-3-yl}sulfonyl)-2-(1H-pyrrolo[2,3-b]pyridin-5-yloxy)benzamide] was run?
A: Its Ki is less than 0.01 nM.

Q: Which Ki does the source give for `CC1(C)CCC(CN2CCN(c3ccc(C(=O)NS(=O)(=O)c4ccc(NCC5CCC6(CC5)COC6)c([N+](=O)[O-])c4)c(Oc4cnc5[nH]ccc5c4)c3)CC2)=C(c2ccc(Cl)cc2)C1` [Compound 365, 4-(4-{[2-(4-chlorophenyl)-4,4-dimethylcyclohex-1-en-1-yl]methyl}piperazin-1-yl)-N-({3-nitro-4-[(2-oxaspiro[3.5]non-7-ylmethyl)amino]phenyl}sulfonyl)-2-(1H-pyrrolo[2,3-b]pyridin-5-yloxy)benzamide] here?
A: The Ki was less than 0.01 nM.

Q: With `CC1(C)CCC(CN2CCN(c3ccc(C(=O)NS(=O)(=O)c4cnc(NC[C@H]5CC[C@@](C)(O)CC5)c([N+](=O)[O-])c4)c(Oc4cnc5[nH]ccc5c4)c3)CC2)=C(c2ccc(Cl)cc2)C1` [Compound 371, 4-(4-{[2-(4-chlorophenyl)-4,4-dimethylcyclohex-1-en-1-yl]methyl}piperazin-1-yl)-N-[(6-{[(trans-4-hydroxy-4-methylcyclohexyl)methyl]amino}-5-nitropyridin-3-yl)sulfonyl]-2-(1H-pyrrolo[2,3-b]pyridin-5-yloxy)benzamide] as the molecule, how does the Ki read?
A: Its Ki is less than 0.001 nM.

Q: With `CC1(C)CCC(CN2CCN(c3ccc(C(=O)NS(=O)(=O)c4ccc(NC(=O)N5CCOCC5)c([N+](=O)[O-])c4)c(Oc4cnc5[nH]ccc5c4)c3)CC2)=C(c2ccc(Cl)cc2)C1` [Compound 373, N-(4-{[4-(4-{[2-(4-chlorophenyl)-4,4-dimethylcyclohex-1-en-1-yl]methyl}piperazin-1-yl)-2-(1H-pyrrolo[2,3-b]pyridin-5-yloxy)benzoyl]sulfamoyl}-2-nitrophenyl)morpholine-4-carboxamide] as the molecule, how does the Ki read?
A: The Ki was less than 0.001 nM.

Q: How did the Ki turn out when `COCC1CCC(CNc2ccc(S(=O)(=O)NC(=O)c3ccc(N4CCN(CC5=C(c6ccc(Cl)cc6)CC(C)(C)CC5)CC4)cc3Oc3cnc4[nH]ccc4c3)cc2[N+](=O)[O-])CC1` (stereo not drawn) [Compound 374, 4-(4-{[2-(4-chlorophenyl)-4,4-dimethylcyclohex-1-en-1-yl]methyl}piperazin-1-yl)-N-{[4-({[4-(methoxymethyl)cyclohexyl]methyl}amino)-3-nitrophenyl]sulfonyl}-2-(1H-pyrrolo[2,3-b]pyridin-5-yloxy)benzamide] was run?
A: Its Ki is less than 0.001 nM.

Source: patent US10213433B2 (AbbVie Inc., priority 2010, dated 2019)
